Measurements from PubChem BioAssay (NCI).
Values joined by “and” are separate entries in the source; they are usually repeats but may differ in a detail not shown here. Equal entries are not always repeated.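 Exposure lasted 48 hours, with cells grown in 96-well plates and compounds tested at five concentrations. The concentration for 50% growth inhibition is given as GI50. TGI is the concentration that stops growth completely.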

What was measured:
Test in all cases: NCI tumour cell line growth inhibition, 48 h
PC-3 prostate = system: PC-3 prostate
SF-268 CNS = system: SF-268 CNS
OVCAR-8 ovarian = system: OVCAR-8 ovarian
SNB-75 CNS = system: SNB-75 CNS
M14 melanoma = system: M14 melanoma
SK-MEL-28 melanoma = system: SK-MEL-28 melanoma
COLO 205 colon = system: COLO 205 colon
CCRF-CEM leukemia = system: CCRF-CEM leukemia
A549 NSCLC = system: A549 NSCLC
NCI-H460 lung = system: NCI-H460 lung

Structure (SMILES)	GI50 (PC-3 prostate) [µM]	TGI (PC-3 prostate)	GI50 (SF-268 CNS) [µM]	TGI (SF-268 CNS)	GI50 (OVCAR-8 ovarian) [µM]	TGI (OVCAR-8 ovarian)	GI50 (SNB-75 CNS) [µM]	TGI (SNB-75 CNS)	GI50 (M14 melanoma) [µM]	TGI (M14 melanoma)	GI50 (SK-MEL-28 melanoma) [µM]	TGI (SK-MEL-28 melanoma)	GI50 (COLO 205 colon) [µM]	TGI (COLO 205 colon)	GI50 (CCRF-CEM leukemia) [µM]	TGI (CCRF-CEM leukemia) [µM]	GI50 (A549 NSCLC) [µM]	TGI (A549 NSCLC)	GI50 (NCI-H460 lung) [µM]	TGI (NCI-H460 lung)
CC1(C)OC2C(CO[Si](C)(C)C(C)(C)C)OC(n3c(I)c(C#C[Si](C)(C)C)c(=O)[nH]c3=O)C2O1 (stereo unspecified)	2.04	4.13 µM	11.4	28.2 µM	12.5	45.8 µM	36.7	> 100 µM	13.4	28.1 µM	1.83	3.56 µM	1.59	2.94 µM	2.67	11	> 100	> 100 µM	16.8	34.2 µM
O=C(Nc1cccc(C(F)(F)F)c1)c1ccc(NC2=C(Cl)C(=O)N(Cc3ccc(Cl)cc3Cl)C2=O)cc1	4.64	15.2 µM	11	35.5 µM	3.42	19.7 µM	14.6	33.3 µM	15.3	32.4 µM	14.1	30.9 µM	4.78	24.2 µM	2.27	5.46	21.6	92.4 µM	8.38	31 µM
CNCCOC(=O)/C=C1\CC[C@H]2[C@@H]([C@@H](O)C(=O)[C@@H]3[C@]2(C)CC[C@H](O)[C@]3(C)C(=O)OC)[C@H]1C	0.369	2.34 µM	0.233	0.59 µM	0.329	1.11 µM	0.396	1.74 µM	1.08	2.46 µM	1.06	2.61 µM	1.55	3.04 µM	0.291	1.09	0.165	0.314 µM	0.201	0.429 µM
CCN(CC)CCNc1nc(N)c(C#N)c(C#N)c1C#N	–	> 10 µM	–	> 10 µM	–	> 10 µM	–	> 10 µM	–	> 10 µM	–	> 10 µM	–	> 10 µM	–	> 10	–	> 10 µM	–	> 10 µM
Cc1nc(N)sc1N=Nc1ccccc1Br	–	63 µM	–	40.4 µM	–	> 84.8 µM	–	37.5 µM	–	67.6 µM	–	> 88.1 µM	–	> 93 µM	–	> 100	–	> 100 µM	–	> 67.4 µM
NC(N)=NCCCC(=O)O	–	> 100 µM	–	> 100 µM	–	> 100 µM	–	> 100 µM	–	> 100 µM	–	> 100 µM	–	> 100 µM	–	> 100	–	> 100 µM	–	> 100 µM
CC(=O)ON1CCCC(P(=O)(OCCSC(=O)C(C)(C)C)OCCSC(=O)C(C)(C)C)C1=O (stereo unspecified)	3.51	> 100 µM	2.29	60.9 µM	0.691	> 100 µM	1.4	23.3 µM	2.11	24.9 µM	1.56	15.5 µM	3.88	> 100 µM	0.283	67.4	1.52	> 100 µM	1.28	19.9 µM
COC(=O)[C@]12CC[C@@H](C)[C@H](C)[C@@H]1C1=CC[C@@H]3[C@@]4(C)C[C@@H](O)[C@H](O)[C@@](C)(CO)C4=CC[C@@]3(C)[C@]1(C)CC2	12.9	27.5 µM	17.4	34.8 µM	15.7	33.8 µM	14.3	28 µM	17.5	33.6 µM	19.2	40.9 µM	17.9	34.4 µM	18.2	37.1	17.3	35.4 µM	17.1	33.8 µM
Cc1nc(Nc2cccnc2)sc1C(=O)/C=C/c1ccc(F)cc1	4.07	20.1 µM	3.57	31.9 µM	3.92	> 100 µM	3.42	67.1 µM	3.02	12.9 µM	3.72	21.4 µM	2.81	8.86 µM	1.4	24.7	3.15	> 100 µM	2.68	6.9 µM
CCCC(=O)Nc1cn(COC)c(C(=O)N2C[C@@H]3C[C@]34C2=CC(=O)c2[nH]cc(C)c24)n1	5.65	24.1 µM and 19 µM	2.65	30.5 µM and 8.66 µM	–	12.8 µM and 14 µM	14.3	23.1 µM and 28.6 µM	4.12	50 µM and 16.2 µM	–	50 µM and 32.2 µM	6.31	16.6 µM and 23.7 µM	1.96	–	–	50 µM and 30 µM	2.44	13.9 µM and 5.08 µM
N#Cc1nn(-c2cc(=O)[nH]c3ccc(Cl)cc23)c(N)c1C#N	> 100	> 100 µM	> 100	> 100 µM	> 100	> 100 µM	> 100	> 100 µM	> 100	> 100 µM	> 100	> 100 µM	59.3	> 100 µM	> 100	> 100	> 100	> 100 µM	> 100	> 100 µM
Cc1c(N(C)C)ccc2c(=O)c3cccc(CC(=O)O)c3oc12	–	> 100 µM	–	> 100 µM	–	> 100 µM	–	> 100 µM	–	> 100 µM	–	> 100 µM	–	> 100 µM	–	> 100	–	> 100 µM	–	> 100 µM
O=C(/C=C/c1ccc[nH]1)c1ccc(-n2ccc(C(F)(F)F)n2)cc1	0.371	> 100 µM	3.8	> 100 µM	> 100	> 100 µM	0.877	4.37 µM	> 100	> 100 µM	> 100	> 100 µM	> 100	> 100 µM	1.06	> 100	9.64	> 100 µM	84.2	> 100 µM
